Patent publication US10590078B2, “Sodium channel blockers” (Daewoong Pharmaceutical Co., Ltd., priority 2015, dated 2020)
Read-outs that look alike come from different tables or passages of the source.

Biological target: human sodium ion channel 1.7 (hNav1.7) (Homo sapiens, UniProt Q15858)
Experiment: Blocking effect against sodium ion channel Nav1.7, IonFlux16 auto patch clamp in hNav1.7 HEK293 cells
Type: cell-based
[1] = hNav1.7 HEK293 cells, inhibition of peak current after 50 seconds treatment, eight concentrations, read-out: IC50

Chain of human sodium ion channel 1.7 (hNav1.7) (Q15858 whole entry): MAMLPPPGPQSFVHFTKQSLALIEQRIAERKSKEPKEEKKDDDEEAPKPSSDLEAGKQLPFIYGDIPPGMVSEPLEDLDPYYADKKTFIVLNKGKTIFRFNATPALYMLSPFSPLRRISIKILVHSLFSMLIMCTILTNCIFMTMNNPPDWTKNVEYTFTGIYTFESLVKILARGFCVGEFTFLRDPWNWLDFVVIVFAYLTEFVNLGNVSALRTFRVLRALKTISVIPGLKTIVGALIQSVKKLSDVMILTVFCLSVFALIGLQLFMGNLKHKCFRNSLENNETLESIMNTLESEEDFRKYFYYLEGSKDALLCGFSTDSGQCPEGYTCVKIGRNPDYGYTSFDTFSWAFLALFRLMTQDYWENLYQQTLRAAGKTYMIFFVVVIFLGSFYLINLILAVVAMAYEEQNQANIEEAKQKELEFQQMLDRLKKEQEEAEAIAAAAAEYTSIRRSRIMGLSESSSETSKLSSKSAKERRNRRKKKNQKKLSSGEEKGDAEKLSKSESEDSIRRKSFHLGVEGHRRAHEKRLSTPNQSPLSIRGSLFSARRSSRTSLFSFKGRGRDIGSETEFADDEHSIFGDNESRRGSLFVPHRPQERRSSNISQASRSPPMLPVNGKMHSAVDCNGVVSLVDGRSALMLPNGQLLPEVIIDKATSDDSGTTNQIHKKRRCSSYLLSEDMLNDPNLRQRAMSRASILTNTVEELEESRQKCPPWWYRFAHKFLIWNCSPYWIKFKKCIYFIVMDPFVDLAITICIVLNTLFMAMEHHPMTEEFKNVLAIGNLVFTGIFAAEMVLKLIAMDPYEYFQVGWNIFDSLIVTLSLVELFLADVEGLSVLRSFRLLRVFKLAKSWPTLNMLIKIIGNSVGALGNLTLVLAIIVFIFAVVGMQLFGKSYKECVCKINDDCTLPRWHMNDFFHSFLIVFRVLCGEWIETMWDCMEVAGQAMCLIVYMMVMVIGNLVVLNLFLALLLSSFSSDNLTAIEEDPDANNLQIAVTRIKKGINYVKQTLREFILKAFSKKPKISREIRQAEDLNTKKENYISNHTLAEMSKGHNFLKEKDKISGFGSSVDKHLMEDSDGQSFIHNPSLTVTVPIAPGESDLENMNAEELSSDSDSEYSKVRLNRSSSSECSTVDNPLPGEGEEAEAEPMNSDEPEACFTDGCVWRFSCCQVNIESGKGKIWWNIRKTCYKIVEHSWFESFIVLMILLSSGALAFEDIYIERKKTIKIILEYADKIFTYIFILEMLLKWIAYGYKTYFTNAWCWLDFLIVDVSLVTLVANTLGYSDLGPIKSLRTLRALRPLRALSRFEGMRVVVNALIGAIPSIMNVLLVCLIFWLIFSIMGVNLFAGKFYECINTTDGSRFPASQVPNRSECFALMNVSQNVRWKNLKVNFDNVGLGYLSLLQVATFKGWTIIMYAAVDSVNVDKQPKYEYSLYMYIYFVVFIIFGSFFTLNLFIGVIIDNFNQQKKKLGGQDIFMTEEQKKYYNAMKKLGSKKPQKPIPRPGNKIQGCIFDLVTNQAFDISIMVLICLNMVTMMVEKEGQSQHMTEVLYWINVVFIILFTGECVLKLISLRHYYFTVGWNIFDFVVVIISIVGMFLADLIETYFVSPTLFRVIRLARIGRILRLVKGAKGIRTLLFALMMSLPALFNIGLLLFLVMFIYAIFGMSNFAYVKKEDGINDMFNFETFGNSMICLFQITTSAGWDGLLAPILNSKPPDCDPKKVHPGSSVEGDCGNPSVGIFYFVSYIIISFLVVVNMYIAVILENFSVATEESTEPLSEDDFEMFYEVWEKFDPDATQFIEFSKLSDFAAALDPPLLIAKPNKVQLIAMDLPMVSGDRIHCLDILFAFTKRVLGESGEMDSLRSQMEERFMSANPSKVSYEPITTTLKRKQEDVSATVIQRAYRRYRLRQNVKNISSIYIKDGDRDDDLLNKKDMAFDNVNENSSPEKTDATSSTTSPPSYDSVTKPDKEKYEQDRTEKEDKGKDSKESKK

IC50 [1] | IC50 | Structure (SMILES)
> 3000 nM |  | Cn1nccc1-c1nn(-c2cc(F)c(S(=O)(=O)Nc3ncns3)cc2Cl)c2ccc(Cl)cc12 [Example 283, 5-chloro-4-(5-chloro-3-(1-methyl-1H-pyrazol-5-yl)-1H-indazol-1-yl)-2-fluoro-N-(1,2,4-thiadiazol-5-yl)benzenesulfonamide]
330 nM |  | Cc1nn(-c2cc(F)c(S(=O)(=O)Nc3cscn3)cc2Cl)c2ccc(Cl)cc12 [Example 277, 5-chloro-4-(5-chloro-3-methyl-1H-indazol-1-yl)-2-fluoro-N-(thiazol-4-yl)benzenesulfonamide]
180 nM |  | Cc1cc(F)ccc1-c1cn(-c2cc(F)c(C(=O)NS(C)(=O)=O)cc2Cl)c2ncc(F)cc12 [Example 212, 5-chloro-2-fluoro-4-(5-fluoro-3-(4-fluoro-2-methylphenyl)-1H-pyrrolo[2,3-b]pyridin-1-yl)-N-(methylsulfonyl)benzamide]
2170 nM |  | CS(=O)(=O)NC(=O)c1cc(Cl)c(-n2nc(/C=C/c3ccccn3)c3cc(Cl)ccc32)cc1F [Example 134, (E)-5-chloro-4-(5-chloro-3-(2-(pyridin-2-yl)vinyl)-1H-indazol-1-yl)-2-fluoro-N-(methylsulfonyl)benzamide]
100 nM |  | CN(C)S(=O)(=O)NC(=O)c1cc(Cl)c(-n2nc(-c3ccc(Cl)cc3F)c3cc(Cl)ccc32)cc1F [Example 138, 5-chloro-4-(5-chloro-3-(4-chloro-2-fluorophenyl)-1H-indazol-1-yl)-N—(N,N-dimethylsulfamoyl)-2-fluorobenzamide]
887 nM |  | CS(=O)(=O)NC(=O)c1ccc(-n2nc(-c3cccc(C(F)(F)F)c3)c3cc(Cl)ccc32)c(C#N)c1 [Example 98, 4-(5-chloro-3-(3-(trifluoromethyl)phenyl)-1H-indazol-1-yl)-3-cyano-N-(methylsulfonyl)benzamide]
170 nM |  | CS(=O)(=O)NC(=O)c1cc(Cl)c(-n2cc(-c3cccc(F)c3)c3cc(Cl)cnc32)cc1F [Example 190, 5-chloro-4-(5-chloro-3-(3-fluorophenyl)-1H-pyrrolo[2,3-b]pyridin-1-yl)-2-fluoro-N-(methylsulfonyl)benzamide]
> 10000 nM |  | Cc1cnc(NC(=O)c2cc(Cl)c(-n3nc(-c4ccc(Cl)cc4F)c4cc(Cl)ccc43)cc2F)s1 [Example 295, 5-chloro-4-(5-chloro-3-(4-chloro-2-fluorophenyl)-1H-indazol-1-yl)-2-fluoro-N-(5-methylthiazol-2-yl)benzamide]
111 nM |  | CS(=O)(=O)NC(=O)c1cc(Cl)c(-n2nc(Cl)c3cc(-c4ccccc4F)ccc32)cc1F [Example 234, 5-chloro-4-(3-chloro-5-(2-fluorophenyl)-1H-indazol-1-yl)-2-fluoro-N-(methylsulfonyl)benzamide]
5390 nM |  | CS(=O)(=O)NC(=O)c1cc(Cl)c(-n2ncc3cc(Cl)ccc32)cc1F [Example 2, 5-chloro-4-(5-chloro-1H-indazol-1-yl)-2-fluoro-N-(methylsulfonyl)benzamide]
850 nM |  | COc1ccccc1-c1nn(-c2cc(F)c(C(=O)NS(C)(=O)=O)cc2Cl)c2ccccc12 [Example 174, 5-chloro-2-fluoro-4-(3-(2-methoxyphenyl)-1H-indazol-1-yl)-N-(methylsulfonyl)benzamide]
80 nM |  | COc1cccc(-c2nn(-c3cc(F)c(C(=O)NS(C)(=O)=O)cc3Cl)c3ccc(F)cc23)c1 [Example 151, 5-chloro-2-fluoro-4-(5-fluoro-3-(3-methoxyphenyl)-1H-indazol-1-yl)-N-(methylsulfonyl)benzamide]
70 nM |  | CS(=O)(=O)NC(=O)c1cc(Cl)c(-n2nc(-c3ccc(Cl)cc3F)c3ccccc32)cc1F [Example 184, 5-chloro-4-(3-(4-chloro-2-fluorophenyl)-1H-indazol-1-yl)-2-fluoro-N-(methylsulfonyl)benzamide]
2220 nM |  | CS(=O)(=O)NC(=O)c1cc(Cl)c(-n2nc(-c3ccncc3)c3cc(Cl)ccc32)cc1F [Example 49, 5-chloro-4-(5-chloro-3-(pyridin-4-yl)-1H-indazol-1-yl)-2-fluoro-N-(methylsulfonyl)benzamide]
108 nM |  | COc1ccc(-c2nn(-c3cc(F)c(C(=O)NS(C)(=O)=O)cc3Cl)c3ccc(Cl)cc23)cc1 [Example 59, 5-chloro-4-(5-chloro-3-(4-methoxyphenyl)-1H-indazol-1-yl)-2-fluoro-N-(methylsulfonyl)benzamide]
1010 nM |  | CS(=O)(=O)NC(=O)c1cc(Cl)c(-n2nc(/C=C/c3ccccc3Cl)c3cc(Cl)ccc32)cc1F [Example 136, (E)-5-chloro-4-(5-chloro-3-(2-chlorostyryl)-1H-indazol-1-yl)-2-fluoro-N-(methylsulfonyl)benzamide]
1330 nM |  | CS(=O)(=O)NC(=O)c1ccc(-n2nc(-c3ccc(Cl)cc3F)c3cc(Cl)ccc32)nc1 [Example 128, 6-(5-chloro-3-(4-chloro-2-fluorophenyl)-1H-indazol-1-yl)-N-(methylsulfonyl)nicotinamide]
1230 nM |  | CS(=O)(=O)NC(=O)c1ccc(-n2cc(-c3ccc(F)cc3)c3cc(Cl)ccc32)nc1 [Example 275, 6-(5-chloro-3-(4-fluorophenyl)-1H-indol-1-yl)-N-(methylsulfonyl)nicotinamide]
 | 39 nM | Cc1cccc(-c2nn(-c3cc(F)c(C(=O)NS(C)(=O)=O)cc3Cl)c3ccc(Cl)cc23)c1 [Example 52, 5-chloro-4-(5-chloro-3-(m-tolyl)-1H-indazol-1-yl)-2-fluoro-N-(methylsulfonyl)benzamide]
600 nM |  | CS(=O)(=O)NC(=O)c1cc(Cl)c(-n2nc(-c3ccc(Cl)cc3)c3cc(C4CC4)ccc32)cc1F [Example 85, 5-chloro-4-(3-(4-chlorophenyl)-5-cyclopropyl-1H-indazol-1-yl)-2-fluoro-N-(methylsulfonyl)benzamide]
786 nM |  | CS(=O)(=O)NC(=O)c1cc(Cl)c(-n2ncc3c(Cl)c(OCc4ccccc4)ccc32)cc1F [Example 29, 4-(5-(benzyloxy)-4-chloro-1H-indazol-1-yl)-5-chloro-2-fluoro-N-(methylsulfonyl)benzamide]
> 10000 nM |  | CS(=O)(=O)NC(=O)c1cc(Cl)c(-n2nc(Cl)c3cc(-c4cncnc4)ccc32)cc1F [Example 241, 5-chloro-4-(3-chloro-5-(pyrimidin-5-yl)-1H-indazol-1-yl)-2-fluoro-N-(methylsulfonyl)benzamide]
226 nM |  | COc1ccc(-c2nn(-c3ccc(C(=O)NS(C)(=O)=O)cc3C#N)c3ccc(Cl)cc23)cc1 [Example 93, 4-(5-chloro-3-(4-methoxyphenyl)-1H-indazol-1-yl)-3-cyano-N-(methylsulfonyl)benzamide]
50 nM |  | CS(=O)(=O)NC(=O)c1cc(Cl)c(-n2cc(-c3ccc(C(F)(F)F)cc3)c3cc(F)cnc32)cc1F [Example 205, 5-chloro-2-fluoro-4-(5-fluoro-3-(4-(trifluoromethyl)phenyl)-1H-pyrrolo[2,3-b]pyridin-1-yl)-N-(methylsulfonyl)benzamide]

Structure (SMILES) | IC50 [1] | IC50
CS(=O)(=O)NC(=O)c1cc(Cl)c(-n2nc(C3=CCNCC3)c3cc(Cl)ccc32)cc1F [Example 132, 5-chloro-4-(5-chloro-3-(1,2,3,6-tetrahydropyridin-4-yl)-1H-indazol-1-yl)-2-fluoro-N-(methylsulfonyl)benzamide] | > 10000 nM | 
